Some test systems named below: COLO 205 colon; NCI/ADR-RES ovarian; PC-3 prostate; SF-295 CNS; SK-MEL-2 melanoma; HCC-2998 colon; NCI-H23 lung; SW-620 colon; MDA-MB-231 breast.
Common to all, as to assay: growth of human tumour cells (NCI), 48 h

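Results reflect a 48-hour exposure of cells in 96-well plates to compound at five concentrations. GI50 marks 50% less growth. The concentration for full growth arrest is given as TGI.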

Consider `CCCS(=O)(=O)c1nc(NC2CC2)cc(-c2ccc3c(ccn3C3CC(C)(C)NC(C)(C)C3)c2)n1`, for which the GI50 was 1.84 µM in the test on COLO 205 colon; 2 µM in the test on NCI/ADR-RES ovarian; 1.78 µM with PC-3 prostate; 1.82 µM in the test on SF-295 CNS; 1.88 µM with SK-MEL-2 melanoma. Moreover, the TGI worked out at 3.39 µM in the test with COLO 205 colon; 4.46 µM with NCI/ADR-RES ovarian; 3.47 µM with PC-3 prostate; 3.47 µM with SF-295 CNS; 3.41 µM in the test on SK-MEL-2 melanoma.

Turning to `CC(O)CN1C(=O)NC(Cc2ccccc2)C1=O` (configuration not stated), the TGI with COLO 205 colon, in the test with HCC-2998 colon, in the test with NCI-H23 lung, with SF-295 CNS, with SK-MEL-2 melanoma and in the test on SW-620 colon was above 100 µM each time.

As for `COc1ccc(/C=C/C(=O)c2sc(-n3nc(-c4ccccc4)cc3-c3ccccc3)nc2C)cc1OC`, the TGI in the test on COLO 205 colon was above 100 µM; with HCC-2998 colon, above 100 µM; with NCI-H23 lung, above 100 µM; in the test on SF-295 CNS, 74.2 µM; with SK-MEL-2 melanoma, above 100 µM; in the test with SW-620 colon, above 100 µM.

Turning to `O=C1N[C@@H](O)[C@@H]2ON=C(c3ccccc3)[C@H]12`, the TGI with COLO 205 colon, in the test on HCC-2998 colon, in the test with NCI-H23 lung, in the test on SF-295 CNS, with SK-MEL-2 melanoma and in the test on SW-620 colon was above 100 µM each time.

Consider `CCOC(=O)Cc1nc(/C(C#N)=C/c2ccco2)[nH]c(=O)c1C#N`, for which the TGI in the test with COLO 205 colon, in the test on HCC-2998 colon, in the test with NCI-H23 lung, in the test with SF-295 CNS, with SK-MEL-2 melanoma and in the test on SW-620 colon was above 100 µM in each case.

Regarding `Clc1ccc(CNc2nc3ccccc3nc2-c2cccs2)c(Cl)c1`, the TGI with COLO 205 colon, in the test with HCC-2998 colon, with NCI-H23 lung, with SF-295 CNS, with SK-MEL-2 melanoma and with SW-620 colon was above 100 µM throughout.

`O=C1c2ccccc2-c2cccc3ccc(Cc4ccccc4)c1c23`: the TGI with COLO 205 colon, with HCC-2998 colon, in the test with NCI-H23 lung, in the test with SF-295 CNS, with SK-MEL-2 melanoma and with SW-620 colon was above 100 µM each time.

For `CC/C=C\C/C=C\C1CC(=O)NCCCNCCCCN1` (configuration not stated), the TGI with COLO 205 colon, with HCC-2998 colon, with NCI-H23 lung, in the test on SF-295 CNS, in the test on SK-MEL-2 melanoma and in the test on SW-620 colon was above 100 µM each time.

As for `CC(C)(C)C1(O)Cc2ccccc2C(=O)O1` (configuration not stated), the TGI in the test on COLO 205 colon, with HCC-2998 colon, with NCI-H23 lung, in the test with SF-295 CNS, in the test on SK-MEL-2 melanoma and with SW-620 colon was above 100 µM in each case.

For `Cc1ccc(-c2nc(C(Cl)Cl)n3nc(-c4ccccc4)cc3n2)cc1`, the GI50 in the test on MDA-MB-231 breast was 0.21 µM; in the test on NCI-H23 lung it was 1.17 µM; in the test on NCI/ADR-RES ovarian, 0.476 µM; with SW-620 colon, 0.392 µM. Besides, the TGI in the test on MDA-MB-231 breast is 0.678 µM; with NCI-H23 lung it was above 100 µM; in the test on NCI/ADR-RES ovarian, 3.76 µM; with SW-620 colon, 2.35 µM.

On to `COc1ccc(C(=O)C(C(=O)CCC(=O)Nc2cccc(C(F)(F)F)c2)c2ccccc2)cc1` (configuration not stated), for which the TGI in the test with COLO 205 colon, in the test with HCC-2998 colon, with NCI-H23 lung, in the test with SF-295 CNS, with SK-MEL-2 melanoma and in the test on SW-620 colon was above 100 µM each time.

Regarding `CC(=O)c1c(C)n([O-])c2cc(C)c(C)cc2[n+]1=O`, the TGI in the test on COLO 205 colon, in the test with HCC-2998 colon, with NCI-H23 lung, in the test on SF-295 CNS, with SK-MEL-2 melanoma and in the test with SW-620 colon was above 100 µM throughout.

`O=c1c2ccccc2c2c3c1cccc3c1cccc3c(=O)c4ccccc4c2c31`: the TGI in the test with COLO 205 colon, in the test with HCC-2998 colon, in the test with NCI-H23 lung, in the test with SF-295 CNS, in the test with SK-MEL-2 melanoma and with SW-620 colon was above 100 µM each time.

Regarding `COc1ccc(C2C(N)=NCC2c2ccccn2)cc1` (configuration not stated), the TGI with COLO 205 colon, in the test on HCC-2998 colon, with NCI-H23 lung, in the test with SF-295 CNS, with SK-MEL-2 melanoma and in the test on SW-620 colon was above 100 µM each time.

Consider `NS(=O)(=O)c1ccc(NC(=O)c2cccc3c(=O)c4ccccc4[nH]c23)cc1`, for which the TGI in the test with COLO 205 colon, with HCC-2998 colon, in the test on NCI-H23 lung, with SF-295 CNS, in the test with SK-MEL-2 melanoma and with SW-620 colon was above 100 µM each time.

Take `Clc1cc(Cl)c2c(Cl)cc(Cl)c3c2c1N=S=N3`: the TGI with COLO 205 colon, in the test on HCC-2998 colon, in the test with NCI-H23 lung, with SF-295 CNS, with SK-MEL-2 melanoma and in the test on SW-620 colon was above 100 µM in each case.

The record behind these values is PubChem BioAssay (NCI).
